Source: the NIST ThermoML archive (doi:10.1016/j.jct.2012.05.023)

Tests used:
[1] = refractive index (Na D-line) (dimensionless); conditions: 101.33 kPa, Liquid, Standard Abbe refractometry
[2] = 101.3 kPa, Liquid; for speed of sound: Sing-around technique in a fixed-path interferometer; for mass density: Vibrating tube method
[3] = refractive index (Na D-line) (dimensionless); xn = mol fraction of the nth substance listed; conditions: 101.3 kPa, Liquid, Standard Abbe refractometry, x2 = 0
[4] = xn = mol fraction of the nth substance listed; conditions: 101.3 kPa, Liquid, x2 = 0; for speed of sound: Sing-around technique in a fixed-path interferometer; for mass density: Vibrating tube method

c1ccc2c(c1)CCCC2 [1,2,3,4-tetrahydronaphthalene]
Conditions | mass density, [2] [kg/m3] | refractive index, [1] | speed of sound, [2] [m/s]
293.15 K | 969.52 | 1.54155 | 1489.5
303.15 K | 961.59 | 1.53687 | 1450.1
313.15 K | 953.66 | 1.53216 | 1411.5
323.15 K | 945.72 | 1.52752 | 1373.6
333.15 K | 937.77 | 1.52274 | 1336.4
343.15 K | 929.8 | 1.51795 | 1299.8

CCCCCCCCCCCC [dodecane]
Conditions | mass density, [2] [kg/m3] | refractive index, [1] | speed of sound, [2] [m/s]
293.15 K | 748.92 | 1.42218 | 1297.9
303.15 K | 741.66 | 1.41784 | 1259.5
313.15 K | 734.38 | 1.41346 | 1221.6
323.15 K | 727.07 | 1.40914 | 1184.4
333.15 K | 719.73 | 1.40479 | 1147.8
343.15 K | 712.34 | 1.40018 | 1111.8

CCCCCCCCCCCC [dodecane] + c1ccc2c(c1)CCCC2
Conditions | mass density, [4] [kg/m3] | refractive index, [3] | speed of sound, [4] [m/s]
293.15 K | 748.92 | 1.42218 | 1297.9
303.15 K | 741.66 | 1.41784 | 1259.5
313.15 K | 734.38 | 1.41346 | 1221.6
323.15 K | 727.07 | 1.40914 | 1184.4
333.15 K | 719.73 | 1.40479 | 1147.8
343.15 K | 712.34 | 1.40018 | 1111.8
